Like-named read-outs stand apart in the source and are kept apart here.
What was measured:
[1] = system: human neuroblastomas SHSY5Y; test: Protection from necrosis induced by maitotoxin, SHSY5Y (wst-1 viability); assay type: cell-based; conditions: for Protection from necrosis induced by MTX: SHSY5Y, n=2, 0.1 nM maitotoxin; for Protection from necrosis induced by MTX on SHSY5Y: n = 8, single product at 100 μM
Experimental: (§1) Human neuroblastomas SHSY5Y and rat glial cells C6 are seeded at 25 000 cells per well in 96-well plates in DMEM 10% FBS for 24 hours. The L6 rat myoblasts are seeded at 1000 cells per well in DMEM 10% FBS on 96-well microplates coated beforehand with gelatin 0.5% PBS. After culture for 3 days the medium is removed and replaced with a differentiation medium (DMEM+10 μg/ml of insulin+100 μg/ml of transferrin). 50 μl of product A plus 50 μl of solvent or 50 μl of product B are placed in the wells. After incubation for 1 hour at 37° C. under an atmosphere of 5% CO2, 10 μl of maitotoxin is added in order to obtain a final concentration of 0.1 nM to 1 nM (according to the cell type). After incubation for 3 hours at 37° C. under an atmosphere of 5% CO2, the cell viability is determined by adding 10 μl of tetrazolium salts (wst-1, Roche, ref: 1644807). The tetrazolium salts are cleaved into formazan molecules by mitochondrial dehydrogenases. The quantity of formazan formed is directly correlated to the number of metabolically active cells in the culture. Measurement of the absorbance of the formazan is carried out using a multiwell photometer at a wavelength of 420 nm against a reference wavelength of 620 nm.
(§2) The theoretical effect was obtained by multiplying the percentage of dead cells in the presence of product A by the percentage of dead cells in the presence of product B (Table 3). The percentage protection against cell death induced by MTX being the percentage of cells kept alive in the presence of the product or products.
In a first series of experiments, the concentration of product A in Example 1 is fixed (100 μM), product B is added at concentrations varying from zero to 100 μM (Table 4A). In a second series of experiments, product B of Example 1 is fixed at 100 μM, product A is added at concentrations varying from zero to 100 μM (Table 4B).

[2] = system: lipidic peroxidation of rat cerebral cortex homogenate; test: In vitro lipidic peroxidation (Fenton reaction, MDA) in rat cerebral cortex membranes; assay type: biochemical; conditions: iron/ascorbate, read-out: Inhibition of lipidic peroxidation [IC50 (μM)]
Experimental: The test consists of inducing lipidic peroxidation by Fenton reactions in the presence of iron and ascorbate. The degree of lipidic peroxidation is determined by the concentration of malonaldehyde (MDA). The MDA produced by the lipidic peroxidation of unsaturated fatty acids is a good indicator of lipidic peroxidation (Esterbauer et al, 1990; Meth. Enzymol. 186: 407421). For this colorimetric test, the condensation of a molecule of MDA with two molecules of chromogenic reagent R (N-methyl-2-phenylindole) produces a stable chromophore the maximum absorbance wavelength of which is equal to […].
The membranes are prepared from the cortexes of male Sprague Dawley rats weighing 200 to 250 g. The animals are sacrificed by decapitation and the brains are immediately removed and rinsed in cold Tris HCl 20 mM pH 7.4. The cortexes, after dissection and removal of the white matter, are then ground with the Thomas potter, in Tris HCl buffer 20 mM pH 7.4 at 4° C. The homogenate obtained is centrifuged at low speed in order to eliminate the large debris (515 g for 15 minutes at 4° C.). The supernatant is then distributed into polycarbonate centrifugation tubes and centrifuged at 51500 g for 25 min at 4° C. The membrane pellets are kept at −80° C.
On the day of the experiment, the frozen membranes are resuspended at a concentration of 0.5 equivalent grams of cortex per 5 ml of Tris HCl buffer 20 mM pH 7.4 and homogeneized using a combitips. In 96-well “deep-well” 1 ml polypropylene plates with a conical base, 5 μl per well of the product to be tested or of solvent is mixed with 40 μl of rat cerebral cortex homogenate by centrifugation (800 rpm). The plates are covered with a self-adhesive aluminium sheet and incubated at 37° C. for 15 minutes under agitation. […]
The membranes and the supernatants are separated by filtration under vacuum on a 96-well plate with a multiscreen filtering base NA (Millipore, ref: MANANLY 50). The absorbance of the supernatants recovered in the 96-well plates is read using a photometer.

rat glial cells C6 = test: Protection from necrosis induced by maitotoxin, C6 (wst-1 viability); assay type: cell-based
Experimental: as §1, §2
In the light of the previous results, the combination of Example 1 with product A and product B at a rate of 100 μM of each of the products is carried out on human neuroblastomas (SHSY5Y; (Table 5A) and on glial cells with 25 μM of product A and 50 μM of product B (C6; Table 5B) on a larger number of cases.

[3] = system: 8-isoPG1F2α level in rat glial cells C6; test: In situ isoprostane level (8-isoPG1F2α) in C6 cells treated with maitotoxin; assay type: cell-based; conditions: 3 h, read-out: Inhibition of the isoprostane count in situ (C6) [IC50 (μM)]
Experimental: 8-isoPG1F2α is part of a family of compounds the first synthesis stage of which (peroxidation of arachidonic acid) is carried out in a non-enzymatic manner in the presence of free radicals (Morrow and coll, 1990). Measurement of the 8-iso PGF2α level is considered as a reliable marker of the oxidation stress.
The rat glial cells C6 were seeded at 25 000 cells per well in 96-well plates in DMEM 10% FBS. The next day, 100 μl of product A was placed in the wells. After incubation for 1 hour at 37° C. under an atmosphere of 5% CO2, 10 μl containing maitotoxin is added in order to obtain a final concentration in the well of 1 nM. After incubation for 3 hours, the supernatants are removed and frozen at −20° C. The 8-isoPG1F2α level is measured using a specific EIA dosage kit (Cayman chemical, ref: 516351).

[4] = system: L6 Myoblasts differentiated to myotubes (rat skeletal muscle cells); test: Protection from necrosis induced by maitotoxin, L6 myoblasts differentiated to myotubes; assay type: cell-based; conditions: single product at 100 μM
Experimental: as §1
The theoretical effect was obtained by multiplying the percentage of dead cells in the presence of product A by the percentage of dead cells in the presence of product B (Table 3). […]

human calpain I = molecular target: T1, human calpain I (Homo sapiens, UniProt P07384); test: Effects on human calpain I (acellular, Suc-Leu-Tyr-AMC fluorescence); assay type: biochemical; conditions: enzyme purified from human erythrocytes; 1 h at 25°C; read-out: Inhibition human calpain I, acellular [IC50 (nM)]
T1 construct: enzyme purified from human erythrocytes; purchased Calbiochem 208713; host or cells: human erythrocytes (native tissue source)
T1 sequence (P07384 1-714): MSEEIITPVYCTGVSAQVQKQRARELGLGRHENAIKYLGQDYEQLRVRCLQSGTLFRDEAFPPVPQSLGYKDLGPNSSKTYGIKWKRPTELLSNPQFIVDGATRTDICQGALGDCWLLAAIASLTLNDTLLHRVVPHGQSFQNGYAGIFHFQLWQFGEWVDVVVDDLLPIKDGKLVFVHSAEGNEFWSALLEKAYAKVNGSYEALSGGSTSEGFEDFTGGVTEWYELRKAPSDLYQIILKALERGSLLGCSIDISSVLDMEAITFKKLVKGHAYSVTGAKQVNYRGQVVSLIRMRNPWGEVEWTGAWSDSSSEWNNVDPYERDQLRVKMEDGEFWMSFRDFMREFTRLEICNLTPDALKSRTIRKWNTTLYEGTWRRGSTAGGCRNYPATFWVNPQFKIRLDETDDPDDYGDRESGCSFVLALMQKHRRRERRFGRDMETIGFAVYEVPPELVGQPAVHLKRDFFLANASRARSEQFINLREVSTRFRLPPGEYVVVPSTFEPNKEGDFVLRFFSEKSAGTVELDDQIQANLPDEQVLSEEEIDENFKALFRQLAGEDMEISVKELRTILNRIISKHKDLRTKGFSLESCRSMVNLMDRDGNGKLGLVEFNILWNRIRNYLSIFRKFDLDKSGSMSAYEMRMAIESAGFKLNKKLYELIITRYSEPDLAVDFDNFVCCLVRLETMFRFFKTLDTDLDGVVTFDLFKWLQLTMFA
T1 sequence (P04632 1-268 partner): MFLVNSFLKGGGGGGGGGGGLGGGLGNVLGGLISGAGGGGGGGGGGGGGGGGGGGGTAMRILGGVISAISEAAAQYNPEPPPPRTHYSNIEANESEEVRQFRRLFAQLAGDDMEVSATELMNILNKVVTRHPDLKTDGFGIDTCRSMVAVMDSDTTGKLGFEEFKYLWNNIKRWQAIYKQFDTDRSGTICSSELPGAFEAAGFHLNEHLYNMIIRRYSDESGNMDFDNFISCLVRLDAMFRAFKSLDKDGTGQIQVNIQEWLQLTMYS
Experimental: The test consists of measuring the activity of the enzyme (enzyme purified from human erythrocytes) which is incubated in a buffer in the presence of a peptide substrate coupled with a fluorochrome (amino-methylcourmarin, AMC) and calcium. The enzyme activated by the calcium, proteolyses the substrate and releases the AMC fragment. The AMC released fluoresces at 460 nm under excitation at 380 nm. The activity of the enzyme is therefore proportional to the quantity of fluorescence i.e. of free AMC fragment. The fluorescence (380/460 nm) is measured using a multi-well fluorimeter (Victor 2, Wallac).
Assay is carried out in 96-well microplates with transparent bottoms and black walls in which 10 μl per well of substance to be tested in DMSO 10%, 45 μl of reaction mixture containing the human calpain I at 2.2 U/ml (Calbiochem, ref: 208713), the Suc Leu Tyr-AMC substrate (Bachem, ref: I-1355) at 1.1 mM in a buffer (Tris-HCl 110 mM; NaCl 110 mM; EDTA 2.2 mM; EGTA 2.2 mM; mercaptoethanol 1.1 mM) are distributed. The reaction is initiated by adding 45 μl of CaCl2 22mM. To determine the background noise, control wells without calcium are added to the plate (10 μL DMSO 10%+45 μL of buffer with the enzyme and the susbtrate +45 μL H2O). In order to determine the total activity of the enzyme control wells containing no product are added to the plate (10 μL DMSO 10%+45 μL of buffer with the enzyme and the substrate +45 μL of CaCl2 22 mM ). Each concentration of the products (0.1 nM to 10 μM) is tested in duplicate. The plates are shaken and incubation takes place for one hour at 25° C. in darkness. The fluorescence is read at 380/460 nm using the Victor.

[5] = single product at 50 μM, n = 3 for Example 2, else n = 1
[6] = single product at 100 μM, n = 1

SMILES	Protection from necrosis induced by MTX ([1]; single compound at 12.5 μM)	Protection from necrosis induced by MTX ([1]; single compound at 25 μM)	Protection from necrosis induced by MTX ([1]; single compound at 50 μM)	Protection from necrosis induced by MTX ([1]; single compound at 100 μM)	Protection from necrosis induced by MTX on SHSY5Y [1]	Protection from necrosis induced by MTX on SHSY5Y ([1]; listed as 3,5-di-tert-butyl-4-hydroxybenzoic acid)	IC50 [2]	Protection from necrosis induced by MTX on C6 (rat glial cells C6; single product at 25 μM)	Protection from necrosis induced by MTX on C6 (rat glial cells C6; single product at 25 μM, listed as 3-5-di-tert-butyl-4-hydroxybenzoic acid)	Protection from necrosis induced by MTX on C6 (rat glial cells C6; single product at 25 μM, listed as EXAMPLE 4 A)	Protection from necrosis induced by MTX on C6 (rat glial cells C6; [5])	Protection from necrosis induced by MTX on C6 (rat glial cells C6; [6])	IC50 ([3]; n = 3, maitotoxin 1 nM)	Protection from necrosis induced by MTX on L6 Myoblasts differentiated to myotubes [4]	Protection from necrosis induced by MTX on C6 (rat glial cells C6; single product at 50 μM, n = 3 for Example 2, else n = 1, listed as 2-methoxy-10H-phenothiazine)	IC50 ([3]; Rattus norvegicus, Glial cell)	IC50 (human calpain I)
CC(C)(C)c1cc(C(=O)O)cc(C(C)(C)C)c1O [EXAMPLE 1 A, 3-5-di-tert-butyl-4-hydroxybenzoic acid]	5.18 ± 1.81%	7.45 ± 1.65%	8.87 ± 0.34%	8.68 ± 0.3%	19.48 ± 5.20%	less than 20%	3.7 µM	21.23%	~20%	16.17%	12.51%	30.84%	101 µM	–	–	–	–
COc1ccc2c(c1)Nc1ccccc1S2 [EXAMPLE 2 A, 2-methoxy-10H-phenothiazine]	–	–	–	–	–	–	0.19 µM	–	–	–	6.56 ± 1.6%	10.45%	–	10.94%	inactive	0.4 µM	–
CCCC[C@@H](C=O)NC(=O)[C@H](CC(C)C)NC(=O)OCc1ccccc1 [EXAMPLE 3 B]	–	–	–	–	–	–	–	–	–	–	13.03%	0.84%	–	5.09%	–	–	2.8 nM

— patent publication US20070265208A1, “Association of calpain inhibitors and reactive oxygen species trapping agents” (priority 2000, published 2007)
